Assay results from ChEMBL document CHEMBL1128726, “N-substituted oxazolo[5,4-b]pyridin-2(1H)-ones: a new class of non-opiate antinociceptive agents” (J Med Chem, 1995).
Calls of active or inactive are those of the source.

Key:
[1] = species: Mus musculus; assay: Analgesic activity against phenylquinone induced writhing in mice compared to that of aspirin.; assay type: functional
[2] = species: Rattus norvegicus; assay: Analgesic activity against acetic acid-induced writhing in the rat compared to that of aspirin.; assay type: functional
[3] = system: Rattus norvegicus; assay: Inhibition of acetic acid induced writhing in rat following 50 mg/kg p.o.; assay type: functional; conditions: route oral
[4] = system: Mus musculus; assay: Inhibition of phenylquinone induced writhing in mice following 50 mg/kg p.o.; assay type: functional; conditions: route oral
[5] = system: Rattus norvegicus; assay: Antiinflammatory activity was evaluated by carrageenan induced rat paw edema (6 rats/ dose) at peroral dose of 50 mg/kg by inhibition of leukotriene B4 (LTB4) synthesis.; assay type: functional; conditions: route oral
[6] = system: Mus musculus; assay: Mortality threshold doses was determined from orientative acute toxicity Irwin test (3 mice/dose) by peroral administration; assay type: organism-based; conditions: in vivo, po
[7] = species: Mus musculus; assay: Antinociceptive potency against phenylquinone (PBQ)-induced writhing in mice (8 mice/dose); assay type: functional
[8] = system: Mus musculus; assay: Analgesic activity was evaluated in mice by hot plate assay and percent change in foot licking latency was determined at 8 mg/kg i.p. dose; assay type: functional; conditions: route intraperitoneal
[9] = species: Rattus norvegicus; assay: Antinociceptive potency against acetic acid -induced writhing in rat (8 rats/dose); assay type: functional
[10] = system: Rattus norvegicus; assay: Antiinflammatory activity was evaluated by carrageenan induced rat paw edema (6 rats/ dose) at peroral dose of 50 mg/kg by inhibition of Prostaglandin E2 (PGE2).; assay type: functional; conditions: route oral
[11] = system: Rattus norvegicus; assay: Antiinflammatory activity was evaluated by carrageenan induced rat paw edema volume was determined.; assay type: functional
[12] = system: Mus musculus; assay: Analgesic activity was evaluated in mice (10 mice/dose)by tail clip assay and expressed as number of protected animals upon total. Total tested was determined at 5 mg/kg p.o. dose; 5/10; assay type: functional, organism-based; set-up: dose 5 mg/kg
[13] = system: Mus musculus; assay: Analgesic activity was evaluated in mice by hot plate assay and percent change in foot licking latency was determined at 16 mg/kg i.p. dose; assay type: functional; conditions: route intraperitoneal
[14] = system: Rattus norvegicus; assay: % inhibition of acetic acid-induced writhing in rat at 30 mg/kg peroral dose, 120 min postdose(5 rats per compound at each time); assay type: functional; conditions: 2 h, route oral
[15] = system: Rattus norvegicus; assay: % inhibition of acetic acid-induced writhing in rat at 30 mg/kg peroral dose, 360 min postdose(5 rats per compound at each time); assay type: functional; conditions: 6 h, route oral
[16] = system: Rattus norvegicus; assay: % inhibition of acetic acid-induced writhing in rat at 30 mg/kg peroral dose, 30 min postdose(5 rats per compound at each time); assay type: functional; conditions: 0.5 h, route oral
[17] = system: Rattus norvegicus; assay: % inhibition of acetic acid-induced writhing in rat at 30 mg/kg peroral dose, 15 min postdose(5 rats per compound at each time); assay type: functional; conditions: 0.25 h, route oral
[18] = system: Rattus norvegicus; assay: % inhibition of acetic acid-induced writhing in rat at 30 mg/kg peroral dose, 180 min postdose(5 rats per compound at each time); assay type: functional; conditions: 3 h, route oral
[19] = system: Rattus norvegicus; assay: % inhibition of acetic acid-induced writhing in rat at 30 mg/kg peroral dose, 60 min postdose(5 rats per compound at each time); assay type: functional; conditions: 1 h, route oral
[20] = system: Rattus norvegicus; assay: Antiinflammatory activity was evaluated by carrageenan induced rat paw edema (6 rats/ dose) at peroral dose of 10 mg/kg by inhibition of leukotriene B4 (LTB4) synthesis.; assay type: functional; conditions: route oral
[21] = species: Rattus norvegicus; assay: animal or person; conditions: po, read-out: Inhibition
Description: Antiinflammatory activity was evaluated by carrageenan induced rat paw edema (6 rats/ dose) at peroral dose of 10 mg/kg by inhibition of Prostaglandin E2 (PGE2).

[22] = system: Rattus norvegicus; assay: Antiinflammatory activity was evaluated by carrageenan induced rat paw edema (6 rats/ dose) at peroral dose of 200 mg/kg and percent of variation of edema volume was determined.; assay type: functional; conditions: route oral
[23] = system: Rattus norvegicus; assay: Antiinflammatory activity was evaluated by carrageenan induced rat paw edema (6 rats/ dose) at peroral dose of 200 mg/kg by inhibition of Prostaglandin E2 (PGE2).; assay type: functional; conditions: route oral
[24] = system: Rattus norvegicus; assay: Antiinflammatory activity was evaluated by carrageenan induced rat paw edema (6 rats/ dose) at peroral dose of 200 mg/kg by inhibition of leukotriene B4 (LTB4) synthesis.; assay type: functional; conditions: route oral
[25] = system: Rattus norvegicus; assay: Antiinflammatory activity was evaluated by carrageenan induced rat paw edema (6 rats/ dose) at peroral dose of 100 mg/kg by inhibition of Prostaglandin E2 (PGE2).; assay type: functional; conditions: route oral
[26] = system: Rattus norvegicus; assay: Antiinflammatory activity was evaluated by carrageenan induced rat paw edema (6 rats/ dose) at peroral dose of 100 mg/kg by inhibition of leukotriene B4 (LTB4) synthesis.; assay type: functional; conditions: route oral
[27] = system: Mus musculus; assay: Analgesic activity was evaluated in mice by hot plate assay and percent change in foot licking latency was determined at 32 mg/kg i.p. dose. p<0.05; assay type: functional; conditions: route intraperitoneal
[28] = system: Rattus norvegicus; assay: % inhibition of acetic acid-induced writhing in rat at 1.5 mg/kg peroral dose, 15 min postdose(5 rats per compound at each time). p<0.05; assay type: functional; conditions: 0.25 h, route oral
[29] = system: Rattus norvegicus; assay: % inhibition of acetic acid-induced writhing in rat at 1.5 mg/kg peroral dose, 30 min postdose(5 rats per compound at each time).p<0.001; assay type: functional; conditions: 0.5 h, route oral
[30] = system: Rattus norvegicus; assay: % inhibition of acetic acid-induced writhing in rat at 1.5 mg/kg peroral dose, 360 min postdose(5 rats per compound at each time); assay type: functional; conditions: 6 h, route oral
[31] = system: Rattus norvegicus; assay: Antiinflammatory activity was evaluated by carrageenan induced rat paw edema (6 rats/ dose) at peroral dose of 50 mg/kg and percent of variation of edema volume was determined.; assay type: functional; conditions: route oral
[32] = system: Rattus norvegicus; assay: % inhibition of acetic acid-induced writhing in rat at 1.5 mg/kg peroral dose, 120 min postdose(5 rats per compound at each time).p<0.05; assay type: functional; conditions: 2 h, route oral
[33] = system: Rattus norvegicus; assay: % inhibition of acetic acid-induced writhing in rat at 1.5 mg/kg peroral dose, 60 min postdose(5 rats per compound at each time).p<0.01; assay type: functional; conditions: 1 h, route oral
[34] = system: Mus musculus; assay: Mortality threshold doses was determined from orientative acute toxicity Irwin test (3 mice/dose) by peroral administration. Value in parentheses represent the percent mortality.; assay type: organism-based; conditions: in vivo, po
[35] = system: Rattus norvegicus; assay: % inhibition of acetic acid-induced writhing in rat at 1.5 mg/kg peroral dose, 180 min postdose(5 rats per compound at each time).p<0.05; assay type: functional; conditions: 3 h, route oral

Row | Structure (SMILES) | Activity ratio [1] | Activity ratio [2] | inhibition in vivo at 50 mg/kg [3] | inhibition in vivo at 50 mg/kg [4] | ED50 [7] | ED50 [9] | also measured
1 | O=c1oc2ncccc2n1CCCN1CCOCC1 | 0.9 | 0 | 0% | 48% |  |  | 
2 | O=c1oc2ncccc2n1CCCCN1CCN(c2ccc(F)cc2)CC1 | 1.9 | 2.2 | 87% | 100% | 2.9 mg/kg | 0.5 mg/kg | inhibition in vivo at 50 mg/kg [5]: 0%; Mortality threshold [6]: 512 mg/kg; Change in foot-licking latency [8]: 113%; inhibition in vivo at 50 mg/kg [10]: 2%; Variation of edema volume [11]: -25%
3 | CN1CC[C@]23c4c5ccc(O)c4O[C@H]2[C@@H](O)C=C[C@H]3[C@H]1C5.CN1CC[C@]23c4c5ccc(O)c4O[C@H]2[C@@H](O)C=C[C@H]3[C@H]1C5.O=S(=O)(O)O |  |  |  |  |  |  | No. of protected animals/total [12]: Partially active; Change in foot-licking latency [13]: 283%
4 | O=c1oc2ncccc2n1CCCCN1CCN(c2ccccc2)CC1 | 1.3 | 1.4 | 96% | 91% | 27 mg/kg | 13.6 mg/kg | 
5 | O=c1oc2ncccc2n1CCN1CCN(c2ccccc2)CC1 |  |  | 74% |  | 25 mg/kg | 13.6 mg/kg | 
6 | O=c1oc2ncccc2n1CCN1CCN(c2ccc(F)cc2)CC1 | 1.2 | 1.2 | 85% | 83% | 6.7 mg/kg | 3.6 mg/kg | 
7 | O=c1oc2ncccc2n1CCN1CCC(c2ccccc2)CC1 | 0.1 | 0.7 | 50% | 9% |  |  | 
8 | O=c1oc2ncccc2n1CCCCCCN1CCN(c2ccc(F)cc2)CC1 | 1.4 | 1.6 | 100% | 100% | 7.7 mg/kg | 14.2 mg/kg | 
9 | CC(=O)Oc1ccccc1C(=O)O [ASPIRIN] |  |  |  |  | 63 mg/kg | 32 mg/kg | inhibition in vivo at 30 mg/kg [14]: 26%; inhibition in vivo at 30 mg/kg [15]: 0%; inhibition in vivo at 30 mg/kg [16]: 37%; inhibition in vivo at 30 mg/kg [17]: 53%; inhibition in vivo at 30 mg/kg [18]: 18%; inhibition in vivo at 30 mg/kg [19]: 60%
10 | COc1ccccc1N1CCN(CCn2c(=O)oc3ncccc32)CC1 | 0.8 | 0.8 | 53% | 52% |  |  | 
11 | O=c1oc2ncccc2n1CCN1CCN(c2cccc3ccccc23)CC1 | 0.7 | 0.1 | 6% | 33% |  |  | 
12 | COc1ccc2c(c1)c(CC(=O)O)c(C)n2C(=O)c1ccc(Cl)cc1 [INDOMETHACIN] |  |  |  |  |  |  | inhibition in vivo at 10 mg/kg [20]: 18%; inhibition in vivo at 10 mg/kg [21]: 100%; Change in volume [11]: -57%
13 | O=C1CCN(c2ccccc2)N1 [PHENIDONE] |  |  |  |  |  |  | Change in volume [22]: -68%; inhibition in vivo at 200 mg/kg [23]: 100%; inhibition in vivo at 200 mg/kg [24]: 100%
14 | O=c1oc2ncccc2n1CCN1CCN(c2cccc(C(F)(F)F)c2)CC1 | 0.1 | 0.2 | 11% | 10% |  |  | 
15 | CC(CN1CCN(c2ccc(F)cc2)CC1)Cn1c(=O)oc2ncccc21 (stereo not given) | 1.4 | 1.6 | 100% | 99% | 24.6 mg/kg | 20.5 mg/kg | 
16 | O=c1oc2ncccc2n1CCCN1CCN(c2ccccc2)CC1 | 1.4 | 1.3 | 92% | 98% | 12.7 mg/kg | 3.3 mg/kg | inhibition in vivo at 100 mg/kg [25]: 5%; inhibition in vivo at 100 mg/kg [26]: 35%; Change in foot-licking latency [27]: 30%; Mortality threshold [6]: > 1024 mg/kg; Change in volume [11]: -20%
17 | O=c1oc2ncccc2n1CCN1CCCC1 | 0.8 | 0.8 | 55% | 55% |  |  | 
18 | COc1ccc(N2CCN(CCCn3c(=O)oc4ncccc43)CC2)cc1 | 0.7 | 0.2 | 14% | 35% |  |  | 
19 | O=c1oc2ncccc2n1CCCCN1CCC(c2ccccc2)CC1 | 0 | 1.5 | 59% | 0% |  |  | 
20 | O=c1oc2ncccc2n1CCCN1CCN(Cc2ccccc2)CC1 | 0.3 | 0.2 | 12% | 14% |  |  | 
21 | O=c1oc2ncccc2n1CCCN1CCN(c2ccc(F)cc2)CC1 | 1.6 | 2 | 79% | 85% | 5.6 mg/kg | 0.5 mg/kg | inhibition in vivo at 1.5 mg/kg [28]: 47%; inhibition in vivo at 1.5 mg/kg [29]: 65%; inhibition in vivo at 50 mg/kg [5]: 16%; inhibition in vivo at 1.5 mg/kg [30]: 4%; Change in foot-licking latency [27]: 87%; Change in volume [31]: -11%; inhibition in vivo at 1.5 mg/kg [32]: 63%; inhibition in vivo at 1.5 mg/kg [33]: 50%; Mortality threshold [34]: 1024 mg/kg; inhibition in vivo at 50 mg/kg [10]: -5%; inhibition in vivo at 1.5 mg/kg [35]: 44%
22 | O=c1oc2ncccc2n1CCCCCN1CCN(c2ccc(F)cc2)CC1 | 1.4 | 1.6 | 100% | 100% | 11.4 mg/kg | 30.4 mg/kg | 
23 | O=c1oc2ncccc2n1CCN1CCN(Cc2ccccc2)CC1 | 0.9 | 0.7 | 48% | 43% |  |  | 
24 | O=C(CCn1c(=O)oc2ncccc21)N1CCN(c2ccc(F)cc2)CC1 | 0.4 | 0.5 | 43% | 25% |  |  | 
25 | CC(CCn1c(=O)oc2ncccc21)N1CCN(c2ccc(F)cc2)CC1 (stereo not given) | 1.3 | 0.7 | 51% | 63% |  |  | 
26 | O=c1oc2ncccc2n1CCCN1CCN(c2cccc3ccccc23)CC1 | 0.9 | 0 | 0% | 44% |  |  | 
